Laboratory results from the supplement of paper PMC10307832.

Columns and labels:
Assay in all cases: relative viability (nuclei count vs DMSO), 5 days (fraction); higher = more cells survive
Elesclomol + Pemetrexed = compound: CN(NC(=O)CC(=O)NN(C)C(=S)c1ccccc1)C(=S)c1ccccc1 [Elesclomol] + Nc1nc2[nH]cc(CCc3ccc(C(=O)N[C@@H](CCC(=O)O)C(=O)O)cc3)c2c(=O)[nH]1 [Pemetrexed] (partner 0.2 µM)
Procedure, shortened: (§1)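 Medians of duplicate plates are given as relative viability. That measure is the nuclei count in treated wells divided by the count in vehicle wells. Counts were taken on 4× images of lung cancer cell lines in 1536-well plates, 5 days after pin-tool dosing the day after seeding with one drug alone or a fixed anchor-drug dose plus five library-drug doses (not always all listed) in √10 steps.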

Elesclomol + Tozasertib = compound: CN(NC(=O)CC(=O)NN(C)C(=S)c1ccccc1)C(=S)c1ccccc1 [Elesclomol] + Cc1cc(Nc2cc(N3CCN(C)CC3)nc(Sc3ccc(NC(=O)C4CC4)cc3)n2)n[nH]1 [Tozasertib] (partner 0.1 µM)
Procedure, shortened: as §1

Elesclomol + OSI-027 = compound: CN(NC(=O)CC(=O)NN(C)C(=S)c1ccccc1)C(=S)c1ccccc1 [Elesclomol] + COc1cccc2cc(-c3nc([C@H]4CC[C@H](C(=O)O)CC4)n4ncnc(N)c34)[nH]c12 [OSI-027] (partner 0.5 µM)
Procedure, shortened: as §1

Elesclomol + Bortezomib = compound: CN(NC(=O)CC(=O)NN(C)C(=S)c1ccccc1)C(=S)c1ccccc1 [Elesclomol] + CC(C)C[C@H](NC(=O)[C@H](Cc1ccccc1)NC(=O)c1cnccn1)B(O)O [Bortezomib] (partner 0.002 µM)
Procedure, shortened: as §1

Elesclomol + Palbociclib = compound: CN(NC(=O)CC(=O)NN(C)C(=S)c1ccccc1)C(=S)c1ccccc1 [Elesclomol] + CC(=O)c1c(C)c2cnc(Nc3ccc(N4CCNCC4)cn3)nc2n(C2CCCC2)c1=O [Palbociclib] (partner 0.5 µM)
Procedure, shortened: as §1

COR-L 105
relative viability (Elesclomol + Pemetrexed; first compound 0.003162 µM): 1.13
relative viability (Elesclomol + Pemetrexed; first compound 0.01 µM): 1.17
relative viability (Elesclomol + Pemetrexed; first compound 0.03162 µM): 0.392
relative viability (Elesclomol + Pemetrexed; first compound 0.1 µM): 0.27
relative viability (Elesclomol + Tozasertib; first compound 0.003162 µM): 0.385
relative viability (Elesclomol + Tozasertib; first compound 0.01 µM): 0.285
relative viability (Elesclomol + Tozasertib; first compound 0.03162 µM): 0.223
relative viability (Elesclomol + Tozasertib; first compound 0.1 µM): 0.142
relative viability (Elesclomol + OSI-027; first compound 0.003162 µM): 0.667
relative viability (Elesclomol + OSI-027; first compound 0.01 µM): 0.365
relative viability (Elesclomol + OSI-027; first compound 0.03162 µM): 0.27
relative viability (Elesclomol + OSI-027; first compound 0.1 µM): 0.143
relative viability (Elesclomol + Bortezomib; first compound 0.003162 µM): 0.751
relative viability (Elesclomol + Bortezomib; first compound 0.01 µM): 0.577
relative viability (Elesclomol + Bortezomib; first compound 0.03162 µM): 0.347
relative viability (Elesclomol + Bortezomib; first compound 0.1 µM): 0.214
relative viability (Elesclomol + Palbociclib; first compound 0.003162 µM): 0.397
relative viability (Elesclomol + Palbociclib; first compound 0.01 µM): 0.358
relative viability (Elesclomol + Palbociclib; first compound 0.03162 µM): 0.317
relative viability (Elesclomol + Palbociclib; first compound 0.1 µM): 0.291

LOU-NH91
relative viability (Elesclomol + Pemetrexed; first compound 0.003162 µM): 0.401
relative viability (Elesclomol + Pemetrexed; first compound 0.01 µM): 0.404
relative viability (Elesclomol + Pemetrexed; first compound 0.03162 µM): 0.487
relative viability (Elesclomol + Pemetrexed; first compound 0.1 µM): 0.375
relative viability (Elesclomol + Tozasertib; first compound 0.003162 µM): 0.631
relative viability (Elesclomol + Tozasertib; first compound 0.01 µM): 0.575
relative viability (Elesclomol + Tozasertib; first compound 0.03162 µM): 0.581
relative viability (Elesclomol + Tozasertib; first compound 0.1 µM): 0.568
relative viability (Elesclomol + OSI-027; first compound 0.003162 µM): 0.786
relative viability (Elesclomol + OSI-027; first compound 0.01 µM): 0.701
relative viability (Elesclomol + OSI-027; first compound 0.03162 µM): 0.595
relative viability (Elesclomol + OSI-027; first compound 0.1 µM): 0.714
relative viability (Elesclomol + Bortezomib; first compound 0.003162 µM): 0.537
relative viability (Elesclomol + Bortezomib; first compound 0.01 µM): 0.525
relative viability (Elesclomol + Bortezomib; first compound 0.03162 µM): 0.423
relative viability (Elesclomol + Bortezomib; first compound 0.1 µM): 0.463
relative viability (Elesclomol + Palbociclib; first compound 0.003162 µM): 0.518
relative viability (Elesclomol + Palbociclib; first compound 0.01 µM): 0.566
relative viability (Elesclomol + Palbociclib; first compound 0.03162 µM): 0.535
relative viability (Elesclomol + Palbociclib; first compound 0.1 µM): 0.508

NCI-H661
relative viability (Elesclomol + Pemetrexed; first compound 0.003162 µM): 0.884
relative viability (Elesclomol + Pemetrexed; first compound 0.01 µM): 0.596
relative viability (Elesclomol + Pemetrexed; first compound 0.03162 µM): 0.38
relative viability (Elesclomol + Pemetrexed; first compound 0.1 µM): 0.331
relative viability (Elesclomol + Tozasertib; first compound 0.003162 µM): 0.356
relative viability (Elesclomol + Tozasertib; first compound 0.01 µM): 0.3
relative viability (Elesclomol + Tozasertib; first compound 0.03162 µM): 0.245
relative viability (Elesclomol + Tozasertib; first compound 0.1 µM): 0.213
relative viability (Elesclomol + OSI-027; first compound 0.003162 µM): 0.617
relative viability (Elesclomol + OSI-027; first compound 0.01 µM): 0.283
relative viability (Elesclomol + OSI-027; first compound 0.03162 µM): 0.242
relative viability (Elesclomol + OSI-027; first compound 0.1 µM): 0.168
relative viability (Elesclomol + Bortezomib; first compound 0.003162 µM): 0.635
relative viability (Elesclomol + Bortezomib; first compound 0.01 µM): 0.288
relative viability (Elesclomol + Bortezomib; first compound 0.03162 µM): 0.209
relative viability (Elesclomol + Bortezomib; first compound 0.1 µM): 0.182
relative viability (Elesclomol + Palbociclib; first compound 0.003162 µM): 0.408
relative viability (Elesclomol + Palbociclib; first compound 0.01 µM): 0.337
relative viability (Elesclomol + Palbociclib; first compound 0.03162 µM): 0.235
relative viability (Elesclomol + Palbociclib; first compound 0.1 µM): 0.181

LU99A
relative viability (Elesclomol + Pemetrexed; first compound 0.003162 µM): 0.188
relative viability (Elesclomol + Pemetrexed; first compound 0.01 µM): 0.183
relative viability (Elesclomol + Pemetrexed; first compound 0.03162 µM): 0.185
relative viability (Elesclomol + Pemetrexed; first compound 0.1 µM): 0.198
relative viability (Elesclomol + Tozasertib; first compound 0.003162 µM): 0.305
relative viability (Elesclomol + Tozasertib; first compound 0.01 µM): 0.245
relative viability (Elesclomol + Tozasertib; first compound 0.03162 µM): 0.274
relative viability (Elesclomol + Tozasertib; first compound 0.1 µM): 0.165
relative viability (Elesclomol + OSI-027; first compound 0.003162 µM): 0.309
relative viability (Elesclomol + OSI-027; first compound 0.01 µM): 0.259
relative viability (Elesclomol + OSI-027; first compound 0.03162 µM): 0.295
relative viability (Elesclomol + OSI-027; first compound 0.1 µM): 0.223
relative viability (Elesclomol + Bortezomib; first compound 0.003162 µM): 1.21
relative viability (Elesclomol + Bortezomib; first compound 0.03162 µM): 1.18
relative viability (Elesclomol + Bortezomib; first compound 0.1 µM): 0.121
relative viability (Elesclomol + Palbociclib; first compound 0.003162 µM): 0.394
relative viability (Elesclomol + Palbociclib; first compound 0.01 µM): 0.269
relative viability (Elesclomol + Palbociclib; first compound 0.03162 µM): 0.408
relative viability (Elesclomol + Palbociclib; first compound 0.1 µM): 0.179

NCI-H1650
relative viability (Elesclomol + Pemetrexed; first compound 0.003162 µM): 0.304
relative viability (Elesclomol + Pemetrexed; first compound 0.01 µM): 0.294
relative viability (Elesclomol + Pemetrexed; first compound 0.03162 µM): 0.333
relative viability (Elesclomol + Pemetrexed; first compound 0.1 µM): 0.095
relative viability (Elesclomol + Tozasertib; first compound 0.003162 µM): 0.227
relative viability (Elesclomol + Tozasertib; first compound 0.01 µM): 0.168
relative viability (Elesclomol + Tozasertib; first compound 0.03162 µM): 0.139
relative viability (Elesclomol + Tozasertib; first compound 0.1 µM): 0.136
relative viability (Elesclomol + OSI-027; first compound 0.003162 µM): 0.221
relative viability (Elesclomol + OSI-027; first compound 0.01 µM): 0.201
relative viability (Elesclomol + OSI-027; first compound 0.03162 µM): 0.151
relative viability (Elesclomol + OSI-027; first compound 0.1 µM): 0.132
relative viability (Elesclomol + Bortezomib; first compound 0.003162 µM): 0.229
relative viability (Elesclomol + Bortezomib; first compound 0.01 µM): 0.206
relative viability (Elesclomol + Bortezomib; first compound 0.03162 µM): 0.165
relative viability (Elesclomol + Bortezomib; first compound 0.1 µM): 0.16
relative viability (Elesclomol + Palbociclib; first compound 0.003162 µM): 0.234
relative viability (Elesclomol + Palbociclib; first compound 0.01 µM): 0.155
relative viability (Elesclomol + Palbociclib; first compound 0.03162 µM): 0.104
relative viability (Elesclomol + Palbociclib; first compound 0.1 µM): 0.0955

SW 1573
relative viability (Elesclomol + Pemetrexed; first compound 0.003162 µM): 0.464
relative viability (Elesclomol + Pemetrexed; first compound 0.01 µM): 0.158
relative viability (Elesclomol + Pemetrexed; first compound 0.03162 µM): 0.115
relative viability (Elesclomol + Pemetrexed; first compound 0.1 µM): 0.0205
relative viability (Elesclomol + Tozasertib; first compound 0.003162 µM): 0.133
relative viability (Elesclomol + Tozasertib; first compound 0.01 µM): 0.119
relative viability (Elesclomol + Tozasertib; first compound 0.03162 µM): 0.0792
relative viability (Elesclomol + Tozasertib; first compound 0.1 µM): 0.0199
relative viability (Elesclomol + OSI-027; first compound 0.003162 µM): 0.167
relative viability (Elesclomol + OSI-027; first compound 0.01 µM): 0.107
relative viability (Elesclomol + OSI-027; first compound 0.03162 µM): 0.0847
relative viability (Elesclomol + OSI-027; first compound 0.1 µM): 0.0105
relative viability (Elesclomol + Bortezomib; first compound 0.003162 µM): 1.02
relative viability (Elesclomol + Bortezomib; first compound 0.01 µM): 0.174
relative viability (Elesclomol + Bortezomib; first compound 0.03162 µM): 0.105
relative viability (Elesclomol + Bortezomib; first compound 0.1 µM): 0.103
relative viability (Elesclomol + Palbociclib; first compound 0.003162 µM): 0.269
relative viability (Elesclomol + Palbociclib; first compound 0.01 µM): 0.104
relative viability (Elesclomol + Palbociclib; first compound 0.03162 µM): 0.0985
relative viability (Elesclomol + Palbociclib; first compound 0.1 µM): 0.0326

HOP-62
relative viability (Elesclomol + Pemetrexed; first compound 0.003162 µM): 0.369
relative viability (Elesclomol + Pemetrexed; first compound 0.01 µM): 0.333
relative viability (Elesclomol + Pemetrexed; first compound 0.03162 µM): 0.224
relative viability (Elesclomol + Pemetrexed; first compound 0.1 µM): 0.113
relative viability (Elesclomol + Tozasertib; first compound 0.003162 µM): 0.359
relative viability (Elesclomol + Tozasertib; first compound 0.01 µM): 0.305
relative viability (Elesclomol + Tozasertib; first compound 0.03162 µM): 0.277
relative viability (Elesclomol + Tozasertib; first compound 0.1 µM): 0.141
relative viability (Elesclomol + OSI-027; first compound 0.003162 µM): 0.823
relative viability (Elesclomol + OSI-027; first compound 0.01 µM): 0.717
relative viability (Elesclomol + OSI-027; first compound 0.03162 µM): 0.701
relative viability (Elesclomol + OSI-027; first compound 0.1 µM): 0.316
relative viability (Elesclomol + Bortezomib; first compound 0.003162 µM): 0.884
relative viability (Elesclomol + Bortezomib; first compound 0.01 µM): 0.708
relative viability (Elesclomol + Bortezomib; first compound 0.03162 µM): 0.83
relative viability (Elesclomol + Bortezomib; first compound 0.1 µM): 0.146
relative viability (Elesclomol + Palbociclib; first compound 0.003162 µM): 0.461
relative viability (Elesclomol + Palbociclib; first compound 0.01 µM): 0.333
relative viability (Elesclomol + Palbociclib; first compound 0.03162 µM): 0.305
relative viability (Elesclomol + Palbociclib; first compound 0.1 µM): 0.144

UMC-11
relative viability (Elesclomol + Pemetrexed; first compound 0.003162 µM): 0.806
relative viability (Elesclomol + Pemetrexed; first compound 0.01 µM): 0.655
relative viability (Elesclomol + Pemetrexed; first compound 0.03162 µM): 0.478
relative viability (Elesclomol + Pemetrexed; first compound 0.1 µM): 0.336
relative viability (Elesclomol + Tozasertib; first compound 0.003162 µM): 0.205
relative viability (Elesclomol + Tozasertib; first compound 0.01 µM): 0.199
relative viability (Elesclomol + Tozasertib; first compound 0.03162 µM): 0.185
relative viability (Elesclomol + Tozasertib; first compound 0.1 µM): 0.168
relative viability (Elesclomol + OSI-027; first compound 0.003162 µM): 0.482
relative viability (Elesclomol + OSI-027; first compound 0.01 µM): 0.428
relative viability (Elesclomol + OSI-027; first compound 0.03162 µM): 0.396
relative viability (Elesclomol + OSI-027; first compound 0.1 µM): 0.336
relative viability (Elesclomol + Bortezomib; first compound 0.003162 µM): 0.802
relative viability (Elesclomol + Bortezomib; first compound 0.01 µM): 0.495
relative viability (Elesclomol + Bortezomib; first compound 0.03162 µM): 0.491
relative viability (Elesclomol + Bortezomib; first compound 0.1 µM): 0.352
relative viability (Elesclomol + Palbociclib; first compound 0.003162 µM): 0.321
relative viability (Elesclomol + Palbociclib; first compound 0.01 µM): 0.275
relative viability (Elesclomol + Palbociclib; first compound 0.03162 µM): 0.29
relative viability (Elesclomol + Palbociclib; first compound 0.1 µM): 0.249
